# Source: US11672775B2, “Treprostinil prodrugs” (United Therapeutics Corporation, priority 2016, dated 2023)
# Tests used:
# [1] = in vitro; conditions: monkey, liver microsomes, pH 7.4
# [2] = In vitro metabolic stability in liver microsomes; conditions: Monkey; +NADPH
# [3] = In vitro metabolic stability in liver microsomes; conditions: Rat
# [4] = system: Sprague Dawley rats; assay: Rat intraplantar injection model, clinical observation score (Example 10); type: in vivo, Sprague Dawley rat; conditions: 1 μg/mL; both time-points; compared with similar dose of treprostinil
# Protocol: (§1) Male Sprague Dawley rats (n=56) were allocated into 7 groups of 8 animals per group. […] Each group was compared to the phosphate buffer (50-mM phosphate buffer with 50-mM sodium chloride at pH=7.4) treated group, which served as the control (Group 1).
# (§2) Animals were administered 0.1 mL of test material by subcutaneous injection into the paw pad (Intraplantar injection) at time zero. Then, the animals were subsequently evaluated for their response to mechanical (von Frey filaments) and thermal stimuli, 15 and 90 minutes post-injection. The von Frey test was conducted prior to the thermal test, which followed immediately within minutes for each animal. In addition, clinical observation scoring of the animal's reaction to injection was conducted.
# A clinical observation score was assigned by assessing for redness, swelling and paw placement.
# [5] = system: Sprague Dawley rats; assay: Rat intraplantar injection model, thermal pain sensitivity (Example 9); type: in vivo, Sprague Dawley rat; conditions: 100 μg/mL; both time points
# Protocol: (§3) Male Sprague Dawley rats (n=112) were allocated into 14 groups of 8/group. The study was run in 2 cycles, on consecutive days, 7 groups per cycle. Each cycle was composed of a Saline group, PBS group, which served as the control, and also treprostinil at a dose of 100 μg/mL or 1 μg/mL.
# (§4) Animals were administered 0.1 mL of test material by subcutaneous injection into the paw pad (Intraplantar injection) at time zero. Animals were subsequently evaluated for their response to mechanical (von Frey filaments) and thermal stimuli, 15 and 90 minutes post-injection. The von Frey test was conducted prior to the thermal test, which followed immediately within minutes for each animal. In addition, clinical observation scoring of the animal's reaction to injection was conducted. FIG. 16 schematically illustrates the study design.
# The sensitivity of animals to a thermal pain stimulus was assessed immediately following the von Frey test. The time until withdrawal of the right-injected leg from a heat source was measured, and the lower (faster) the time of response represents a greater sensitivity to the stimulus. The test was performed 15 and 90 minutes post-Test Item injection.
# [6] = system: Sprague Dawley rats; assay: Rat intraplantar injection model, von Frey test (Example 10); type: in vivo, Sprague Dawley rat; conditions: 1 μg/mL or 100 μg/mL; 15 and 90 minutes post-injection
# Protocol: as §1, §2
# Mechanical pain sensitivity was tested using the von Frey test, which measures the withdrawal force threshold of the animals. The lower the force applied represents a greater sensitivity to the stimulus. The von Frey test was performed 15 and 90 minutes post-test item injection.
# [7] = system: Sprague Dawley rats; assay: Rat intraplantar injection model, clinical observation score (Example 9); type: in vivo, Sprague Dawley rat
# Protocol: as §3, §4
# A Clinical observation score was assigned by assessing for redness, swelling and paw placement.
# [8] = system: Sprague Dawley rats; assay: Clinical observations following subcutaneous injection (Example 12); type: in vivo, Sprague Dawley rat; conditions: 3, 10, or 30 mg/kg SC; some animals; approximately 4 hours
# Protocol: (§5) Clinical observations were performed at approximately 6 hours prior to dosing, at the completion of dosing and at approximately 4 hours postdosing.
# [9] = system: Sprague Dawley rats; assay: Rat intraplantar injection model, thermal pain sensitivity (Example 10); type: in vivo, Sprague Dawley rat
# Protocol: as §1, §2
# The sensitivity of animals to a thermal pain stimulus was assessed immediately following the von Frey test. The time until withdrawal of the right-injected leg from a heat source was measured, and the lower (faster) the time of response represents a greater sensitivity to the stimulus. The test was performed 15 and 90 minutes post-test item injection.
# [10] = system: Sprague Dawley rats; assay: Cardiovascular assessment by radiotelemetry following subcutaneous injection (Example 12); type: in vivo, Sprague Dawley rat
# Protocol: as §5
# [11] = system: Sprague Dawley rats; assay: Rat intraplantar injection model, von Frey test (Example 9); type: in vivo, Sprague Dawley rat; conditions: for von Frey withdrawal force threshold vs PBS-treated group: both time points post-injection
# Protocol: as §3, §4
# Mechanical pain sensitivity was tested using the von Frey test, which measures the withdrawal force threshold of the animals. The lower the force applied represents a greater sensitivity to the stimulus. The von Frey test was performed 15 and 90 minutes post-Test Item injection.
# [12] = only the 1 μg/mL dose, both time points
smiles,measurement,setting,value
"CCOc1ccc2ccc(=O)oc2c1 [Prodrug 7-EC, 7-ethoxycoumarin]",half-life at 500 nM,[1],> 6 h
same,Half-life,[2],2.00 min
same,Half-life,[3]; +NADPH,0.0982 h
same,Half-life,[3]; −NADPH,>6 h
CCCCC[C@H](O)CC[C@@H]1[C@H]2Cc3cccc(OCC(=O)NCC(=O)O)c3C[C@H]2C[C@H]1O [Prodrug VII],clinical score,[4],lower values of clinical score
same,thermal paw withdrawal time vs PBS group,[5],trend toward reduction in the time of response
same,von Frey withdrawal force threshold vs phosphate buffer group,[6],reduced withdrawal force threshold
same,clinical score,"[7]; 100 μg/mL (cycle 1), 15 min",non-zero
same,clinical score vs PBS group,"[7]; 100 μg/mL (cycle 1), 90 minutes post-injection",non-zero
same,clinical score vs PBS group,"[7]; 100 μg/mL, both time points",statistically significant increase in the clinical score
same,clinical score vs similar dose of treprostinil,[7]; [12],reduced clinical score
same,clinical observations,[8],"flushed body and/or extremities, piloerection, hypoactivity, reddened forelimb(s) and/or hindlimb(s), wet yellow material on the urogenital area and ventral trunk, and dried red material around nose"
same,sensitivity to thermal stimulation,"[9]; 1 μg/mL, both time-points, compared with similar dose of treprostinil",reduced sensitivity to thermal stimulation
same,thermal paw withdrawal time vs phosphate buffer treated group,"[9]; 100 μg/mL, 15 minutes post-administration",statistically significantly faster paw withdrawal time
same,diastolic blood pressure change,[10]; 0.1 mg/kg SC (for Prodrug VII),No meaningful change
same,mean blood pressure change,[10]; 0.1 mg/kg SC (for Prodrug VII),No meaningful change
same,systolic blood pressure change,[10]; 0.1 mg/kg SC (for Prodrug VII),No meaningful change
same,body temperature change,[10]; 1 mg/kg SC,No significant changes
same,diastolic blood pressure change,[10]; 3 mg/kg SC,Marginally lower
same,diastolic blood pressure lowering persisted through,[10]; 3 mg/kg SC,80 min
same,"diastolic blood pressure, time of nadir",[10]; 3 mg/kg SC,50 min
same,hypothermic response persisted through,[10]; 3 mg/kg SC,4 h
same,mean blood pressure change,[10]; 3 mg/kg SC,Marginally lower
same,"mean blood pressure, time of nadir",[10]; 3 mg/kg SC,50 min
same,systolic blood pressure change,[10]; 3 mg/kg SC,Marginally lower
same,"systolic blood pressure, time of nadir",[10]; 3 mg/kg SC,50 min
same,diastolic hypotension persisting through,[10]; 10 mg/kg SC,approximately 4 hours
same,mean blood pressure hypotension persisting through,[10]; 10 mg/kg SC,approximately 4 hours
same,pulse pressure change,[10]; 10 mg/kg SC,Marginally higher
same,systolic hypotension persisting through,[10]; 10 mg/kg SC,approximately 4 hours
same,systolic hypotension persisting through,[10]; 30 mg/kg SC,~6 h
same,time without recovery of body temperature,[10]; 30 mg/kg SC,> 24 h
same,body temperature change,"[10]; 3, 10, and 30 mg/kg SC",Significantly lower
same,diastolic blood pressure change,[10]; 10 and 30 mg/kg SC,Significantly lower
same,"diastolic blood pressure, earliest time point of lowering",[10]; 10 and 30 mg/kg SC,20 min
same,"diastolic blood pressure, time of nadir",[10]; 10 and 30 mg/kg SC,40 min
same,mean blood pressure change,[10]; 10 and 30 mg/kg SC,Significantly lower
same,"mean blood pressure, time of nadir",[10]; 10 and 30 mg/kg SC,40 min
same,systolic blood pressure change,[10]; 10 and 30 mg/kg SC,Significantly lower
same,"systolic blood pressure, earliest time point of lowering",[10]; 10 and 30 mg/kg SC,20 min
same,"systolic blood pressure, time of nadir",[10]; 10 and 30 mg/kg SC,40 min
same,dose resulting in significantly lower body temperature,[10]; single SC injection,≥ 3 mg/kg
same,"dose resulting in significantly lower systolic, diastolic, mean arterial blood pressure",[10]; single SC injection,≥ 3 mg/kg
same,heart rate change,"[10]; single SC injection, all doses",Higher heart rates
same,von Frey withdrawal force threshold vs PBS-treated group,[11]; 1 μg/mL,no statistically significant difference
same,von Frey withdrawal force threshold vs PBS-treated group,[11]; 100 μg/mL,statistically significant increased sensitivity
same,sensitivity to mechanical stimulation vs similar dose of treprostinil,[11]; [12],reduced sensitivity
